From article PMC12470154, “In Vitro Evaluation of Antimicrobial Amyloidogenic Peptides for the Treatment of Early and Mature Bacterial Biofilms” (International Journal of Molecular Sciences, 2025)

How the values were obtained:
S. aureus (129B strain) [1] = test: Mature biofilms, crystal violet staining; assay type: cell-based, Staphylococcus aureus; design: key: ↓: Decrease in the parameter (optical density) compared to the negative control; −: No decrease in the parameter; ↑: Reverse effect (increase in the optical density compared to the control); details: mature biofilm: peptide added after 24 h, further 24 h; 0.01-10 mg/mL
Procedure: (§1) After 24 h of incubation, the medium was removed. To assess the total biofilm biomass, the wells were rinsed with sterile PBS solution and stained with 0.1% crystal violet. The dye bound to the surface was then removed using 95% ethanol. To assess the presence of metabolically active cells, 0.3% MTT (PanEco Ltd., Moscow, Russia) solution was added to each well, and the plates were incubated at 37 °C for 2 h. After incubation, the MTT solution was removed, 150 µL of DMSO (Chimmed, Moscow, Russia) and 25 µL of glycine buffer were added to each well, and the plates were left at room temperature for 15 min. The resulting solutions were transferred to a flat-bottom 96-well plate, and optical density was measured at 595 nm.
(§2) A stationary-phase culture of the tested strain was diluted 100-fold in fresh medium (200 µL per well) and added to the wells of a 96-well round-bottom plate. […] After another 24 h, the medium was removed and the wells were rinsed with sterile PBS to eliminate planktonic cells. The procedures for assessing total biofilm biomass and cell metabolic activity using crystal violet and MTT assays were performed in the same manner as described above for early-stage biofilm experiments.

MRSA (SA 180-F strain) [2] = test: Mature biofilms, MTT assay; assay type: cell-based, methicillin-resistant Staphylococcus aureus; details: mature biofilm
Procedure: as §1, §2

[3] = tested on: P. aeruginosa (2943 strain); test: Early biofilm formation, crystal violet staining; assay type: cell-based, Pseudomonas aeruginosa; details: 24 h; for change of optical density after crystal violet staining vs negative control: peptide present from inoculation, OD 595 nm
Procedure: as §1

[4] = tested on: P. aeruginosa (2943 strain); test: Early biofilm formation, MTT assay; assay type: cell-based, Pseudomonas aeruginosa; design: key: ↓: Decrease in the parameter (optical density) compared to the negative control; −: No decrease in the optical density; ↑: Reverse effect (increase in the optical density compared to the control); details: 24 h, 0.3% MTT 2 h 37 °C, OD 595 nm
Procedure: as §1

MRSA (SA 180-F strain) [5] = test: Mature biofilms, crystal violet staining; assay type: cell-based, methicillin-resistant Staphylococcus aureus; design: key: ↓: Decrease in the parameter (optical density) compared to the negative control; −: No decrease in the parameter; ↑: Reverse effect (increase in the optical density compared to the control); details: mature biofilm: peptide added after 24 h, further 24 h, 0.01-10 mg/mL
Procedure: as §1, §2

[6] = tested on: P. aeruginosa (2943 strain); test: Mature biofilms, MTT assay; assay type: cell-based, Pseudomonas aeruginosa; details: mature biofilm
Procedure: as §1, §2

E. coli (MG1655 strain) [7] = test: Early biofilm formation, MTT assay; assay type: cell-based, Escherichia coli; design: key: ↓: Decrease in the parameter (optical density) compared to the negative control; −: No decrease in the parameter; ↑: Reverse effect (increase in the optical density compared to the control); details: 24 h, 0.3% MTT 2 h 37 °C, OD 595 nm
Procedure: as §1

E. coli (MG1655 strain) [8] = test: Mature biofilms, MTT assay; assay type: cell-based, Escherichia coli; design: key: ↓: Decrease in the parameter (optical density) compared to the negative control; −: No decrease in the parameter; ↑: Reverse effect (increase in the optical density compared to the control); details: mature biofilm: peptide added after 24 h, further 24 h, 0.01-10 mg/mL
Procedure: as §1, §2

E. coli (MG1655 strain) [9] = test: Early biofilm formation, MTT assay; assay type: cell-based, Escherichia coli; design: key: ↓: Decrease in the parameter (optical density) compared to the negative control; −: No decrease in the optical density; ↑: Reverse effect (increase in the optical density compared to the control); details: 24 h, 0.3% MTT 2 h 37 °C, OD 595 nm
Procedure: as §1

[10] = tested on: P. aeruginosa (2943 strain); test: Early biofilm formation, MTT assay; assay type: cell-based, Pseudomonas aeruginosa; design: key: ↓: Decrease in the parameter (optical density) compared to the negative control; −: No decrease in the parameter; ↑: Reverse effect (increase in the optical density compared to the control); details: 24 h, 0.3% MTT 2 h 37 °C, OD 595 nm
Procedure: as §1

S. aureus (129B strain) [11] = test: Antibacterial activity on 0.7% agar (inhibition zone); assay type: cell-based, Staphylococcus aureus; design: key: +: The presence of a bacterial growth inhibition zone; −: The absence of a bacterial growth inhibition zone; details: drop on 0.7% agar, 24 h
Procedure: Drops of the samples were applied to the surface of solidified 0.7% agar at the concentrations indicated in Table 2 and Supplementary S2 (Figures S1–S4). After 24 h of incubation, the results were evaluated based on the presence or absence (+/−) of inhibition zones.
Once the agar solidified, drops of peptide samples at the concentrations 1, 0.1, 0.01, and 0.001 mg/mL were applied to the agar surface.

E. coli (MG1655 strain) [12] = test: Antibacterial activity in liquid medium (optical density); assay type: cell-based, Escherichia coli; details: 10 mg/mL
[13] = tested on: P. aeruginosa (2943 strain); test: Early biofilm formation, MTT assay; assay type: cell-based, Pseudomonas aeruginosa; details: for bacterial metabolic activity (MTT): 10 mg/mL; for concentration given with ↓ (MTT): 24 h
Procedure: as §1

MRSA (SA 180-F strain) [14] = test: Early biofilm formation, crystal violet staining; assay type: cell-based, methicillin-resistant Staphylococcus aureus; design: key: ↓: Decrease in the parameter (optical density) compared to the negative control; −: No decrease in the optical density; ↑: Reverse effect (increase in the optical density compared to the control); details: peptide present from inoculation, 24 h, OD 595 nm
Procedure: as §1

Row | Sequence | change of optical density after crystal violet staining vs negative control (S. aureus (129B strain) [1]) | concentration given with ↓ (MTT) (MRSA (SA 180-F strain) [2]) | concentration given with ↓ (crystal violet) [3] | change of optical density after crystal violet staining vs negative control [3] | change of optical density after MTT assay vs negative control [4] | change of optical density after crystal violet staining vs negative control (MRSA (SA 180-F strain) [5]) | residual viability of cells (MTT) [6] | change of optical density after MTT assay vs negative control (E. coli (MG1655 strain) [8]) | change of optical density after MTT assay vs negative control (E. coli (MG1655 strain) [9]) | bacterial growth inhibition zone (S. aureus (129B strain) [11]; 0.001 mg/mL) | bacterial growth inhibition zone (S. aureus (129B strain) [11]; 0.01 mg/mL) | bacterial growth inhibition zone (S. aureus (129B strain) [11]; 0.1 mg/mL) | bacterial growth inhibition zone (S. aureus (129B strain) [11]; 1 mg/mL) | antimicrobial activity relative to meropenem (E. coli (MG1655 strain) [12]) | bacterial metabolic activity (MTT) [13] | concentration given with ↓ (MTT) [13] | change of optical density after MTT assay vs negative control (E. coli (MG1655 strain) [7]) | change of optical density after crystal violet staining vs negative control (MRSA (SA 180-F strain) [14]) | also measured
1 | RKKRRQRRRGGGGVVVHINGGKFGGGGSRQIKIWFQNRRMKWKK [R44K^S] | ↑ | 0.01 mg/mL | 10 mg/mL | ↓ (10 mg/mL) | − | ↑ | did not inhibit | ↑ | − | − | − | − | + | comparable to that of meropenem | reduced bacterial metabolic activity | 10 mg/mL |  |  | change of optical density after MTT assay vs negative control (E. coli (MG1655 strain) [7]; listed as R44K^P): ↑; change of optical density after MTT assay vs negative control ([10]; listed as R44K^P): ↓ (10 mg/mL)
2 | ITDFGIFIGLGGGGSRQIKIWFQNRRMKWKK [I31K^P] | ↑ | 0.01 mg/mL |  | − | − | ↑ |  |  |  |  |  |  |  |  |  |  | ↑ | − | metabolic activity of cells within mature biofilms (MTT) (MRSA (SA 180-F strain) [2]; 0.01, 0.1, 1, and 10 mg/mL): decreased the metabolic activity
3 | RKKRRQRRRGGGGITDFGIFIGL [R23L^P] | ↑ | 0.01 mg/mL | 10 mg/mL | ↓ (10 mg/mL) |  |  | did not inhibit |  |  | − | − | − | + | comparable to that of meropenem |  |  | ↑ |  | change of optical density after MTT assay vs negative control [10]: ↑
4 | VTDFGVFVEIGGGGSRQIKIWFQNRRMKWKK [V31K^T, amyloidogenic fragment of S1 of T. thermophilus linked via glycine-rich linker to antennapedia peptide] | ↑ | 0.01 mg/mL | 10 mg/mL | − | − |  | did not inhibit |  | − | − | − | − | − |  | reduced bacterial metabolic activity | 10 mg/mL |  |  | change of optical density after crystal violet staining vs negative control ([3]; listed as V31K^S): ↓ (10 mg/mL); change of optical density after crystal violet staining vs negative control (MRSA (SA 180-F strain) [5]; listed as V31K^S): ↑; change of optical density after MTT assay vs negative control (E. coli (MG1655 strain) [8]; listed as V31K^S): ↑; change of optical density after MTT assay vs negative control ([10]; listed as V31K^S): ↓ (10 mg/mL)
5 | RKKRRQRRRGGGGVTDFGVFVEI [R23I^T, TAT cell-penetrating peptide linked via glycine linker to amyloidogenic fragment of S1 ribosomal protein of T. thermophilus] |  |  |  | − | − |  | did not inhibit | ↑ |  | − | − | − | + |  |  |  | ↑ | − | 
